The NIST ThermoML archive (doi:10.1016/j.jct.2005.07.011)
± gives the expanded uncertainty stated by the source.

Test: excess molar enthalpy (molar enthalpy of mixing); xn = mol fraction of the nth substance listed
Conditions: Liquid, Flow calorimetry

CCC(C)O (stereo not given) [butan-2-ol] + COC(=O)OC
Conditions	excess molar enthalpy [kcal/mol]
298.15 K, 1000 kPa, x2 = 0.05	0.126 ± 0.00454
298.15 K, 1000 kPa, x2 = 0.1	0.237 ± 0.00454
298.15 K, 1000 kPa, x2 = 0.15	0.328 ± 0.00454
298.15 K, 1000 kPa, x2 = 0.2	0.4 ± 0.00478
298.15 K, 1000 kPa, x2 = 0.25	0.459 ± 0.00478
298.15 K, 1000 kPa, x2 = 0.3	0.5033 ± 0.00502
298.15 K, 1000 kPa, x2 = 0.35	0.5352 ± 0.00502
298.15 K, 1000 kPa, x2 = 0.4	0.5549 ± 0.00502
298.15 K, 1000 kPa, x2 = 0.45	0.5664 ± 0.00502
298.15 K, 1000 kPa, x2 = 0.5	0.568 ± 0.00502
298.15 K, 1000 kPa, x2 = 0.55	0.5595 ± 0.00478
298.15 K, 1000 kPa, x2 = 0.6	0.5407 ± 0.00454
298.15 K, 1000 kPa, x2 = 0.65	0.5126 ± 0.0043
298.15 K, 1000 kPa, x2 = 0.7	0.4758 ± 0.00406
298.15 K, 1000 kPa, x2 = 0.75	0.43 ± 0.00359
298.15 K, 1000 kPa, x2 = 0.8	0.3661 ± 0.00311
298.15 K, 1000 kPa, x2 = 0.9	0.2152 ± 0.00186
298.15 K, 1000 kPa, x2 = 0.95	0.1148 ± 0.00108
313.15 K, 100 kPa, x2 = 0.051	0.124 ± 0.00454
313.15 K, 100 kPa, x2 = 0.102	0.238 ± 0.00454
313.15 K, 100 kPa, x2 = 0.148	0.323 ± 0.0043
313.15 K, 100 kPa, x2 = 0.202	0.412 ± 0.00454
313.15 K, 100 kPa, x2 = 0.251	0.4757 ± 0.0043
313.15 K, 100 kPa, x2 = 0.352	0.5707 ± 0.00502
313.15 K, 100 kPa, x2 = 0.4	0.6006 ± 0.00502
313.15 K, 100 kPa, x2 = 0.45	0.6191 ± 0.00502
313.15 K, 100 kPa, x2 = 0.501	0.6252 ± 0.00502
313.15 K, 100 kPa, x2 = 0.551	0.6211 ± 0.00502
313.15 K, 100 kPa, x2 = 0.6	0.6077 ± 0.00502
313.15 K, 100 kPa, x2 = 0.649	0.5813 ± 0.00478
313.15 K, 100 kPa, x2 = 0.701	0.5413 ± 0.00478
313.15 K, 100 kPa, x2 = 0.749	0.4921 ± 0.00454
313.15 K, 100 kPa, x2 = 0.799	0.426 ± 0.00454
313.15 K, 100 kPa, x2 = 0.849	0.345 ± 0.00454
313.15 K, 100 kPa, x2 = 0.899	0.248 ± 0.00478
313.15 K, 100 kPa, x2 = 0.951	0.128 ± 0.00478
313.15 K, 1000 kPa, x2 = 0.051	0.127 ± 0.00454
313.15 K, 1000 kPa, x2 = 0.098	0.234 ± 0.00454
313.15 K, 1000 kPa, x2 = 0.149	0.328 ± 0.00454
313.15 K, 1000 kPa, x2 = 0.198	0.411 ± 0.00454
313.15 K, 1000 kPa, x2 = 0.251	0.4777 ± 0.0043
313.15 K, 1000 kPa, x2 = 0.348	0.5696 ± 0.00502
313.15 K, 1000 kPa, x2 = 0.4	0.5987 ± 0.00502
313.15 K, 1000 kPa, x2 = 0.451	0.6176 ± 0.00502
313.15 K, 1000 kPa, x2 = 0.501	0.6242 ± 0.00502
313.15 K, 1000 kPa, x2 = 0.551	0.6223 ± 0.00502
313.15 K, 1000 kPa, x2 = 0.6	0.6059 ± 0.00502
313.15 K, 1000 kPa, x2 = 0.649	0.5827 ± 0.00478
313.15 K, 1000 kPa, x2 = 0.701	0.542 ± 0.00478
313.15 K, 1000 kPa, x2 = 0.749	0.4932 ± 0.00454
313.15 K, 1000 kPa, x2 = 0.799	0.426 ± 0.00454
313.15 K, 1000 kPa, x2 = 0.85	0.346 ± 0.0043
313.15 K, 1000 kPa, x2 = 0.899	0.248 ± 0.00478
313.15 K, 1000 kPa, x2 = 0.951	0.126 ± 0.00502
313.15 K, 10000 kPa, x2 = 0.051	0.135 ± 0.00478
313.15 K, 10000 kPa, x2 = 0.1	0.248 ± 0.00478
313.15 K, 10000 kPa, x2 = 0.15	0.344 ± 0.00454
313.15 K, 10000 kPa, x2 = 0.2	0.425 ± 0.00454
313.15 K, 10000 kPa, x2 = 0.25	0.4896 ± 0.00454
313.15 K, 10000 kPa, x2 = 0.301	0.5404 ± 0.00478
313.15 K, 10000 kPa, x2 = 0.35	0.5784 ± 0.00478
313.15 K, 10000 kPa, x2 = 0.399	0.6045 ± 0.00502
313.15 K, 10000 kPa, x2 = 0.451	0.6203 ± 0.00502
313.15 K, 10000 kPa, x2 = 0.501	0.6251 ± 0.00502
313.15 K, 10000 kPa, x2 = 0.551	0.6178 ± 0.00502
313.15 K, 10000 kPa, x2 = 0.599	0.6019 ± 0.00502
313.15 K, 10000 kPa, x2 = 0.65	0.5699 ± 0.00502
313.15 K, 10000 kPa, x2 = 0.751	0.4739 ± 0.0043
313.15 K, 10000 kPa, x2 = 0.801	0.413 ± 0.0043
313.15 K, 10000 kPa, x2 = 0.851	0.335 ± 0.00454
313.15 K, 10000 kPa, x2 = 0.901	0.238 ± 0.00478
313.15 K, 10000 kPa, x2 = 0.949	0.127 ± 0.00478
328.15 K, 1000 kPa, x2 = 0.05	0.128 ± 0.00478
328.15 K, 1000 kPa, x2 = 0.1	0.244 ± 0.00478
328.15 K, 1000 kPa, x2 = 0.15	0.345 ± 0.00478
328.15 K, 1000 kPa, x2 = 0.201	0.428 ± 0.00478
328.15 K, 1000 kPa, x2 = 0.25	0.496 ± 0.00502
328.15 K, 1000 kPa, x2 = 0.302	0.5534 ± 0.00502
328.15 K, 1000 kPa, x2 = 0.352	0.5928 ± 0.0055
328.15 K, 1000 kPa, x2 = 0.402	0.6206 ± 0.0055
328.15 K, 1000 kPa, x2 = 0.45	0.6375 ± 0.0055
328.15 K, 1000 kPa, x2 = 0.502	0.6437 ± 0.0055
328.15 K, 1000 kPa, x2 = 0.551	0.6361 ± 0.00526
328.15 K, 1000 kPa, x2 = 0.603	0.6173 ± 0.00526
328.15 K, 1000 kPa, x2 = 0.653	0.5904 ± 0.00502
328.15 K, 1000 kPa, x2 = 0.7	0.5518 ± 0.00454
328.15 K, 1000 kPa, x2 = 0.751	0.496 ± 0.00406
328.15 K, 1000 kPa, x2 = 0.802	0.4279 ± 0.00359
328.15 K, 1000 kPa, x2 = 0.9	0.2527 ± 0.00215
328.15 K, 1000 kPa, x2 = 0.95	0.1345 ± 0.00124
